Reference: publication PMC8241580 (Bioorganic Chemistry, 2021)
Several values for one entry are separate records, joined by “and”; a condition that tells them apart may be missing. Equal values may be shown once.

Tests used:
[1] = test system: SARS-CoV-2; test: Antiviral assay, virus-induced cytopathic effect; assay type: cell-based, SARS-CoV-2 (hCoV-19/Egypt/NRC-03/2020); details: CC50 VERO-E6 / IC50 SARS-CoV-2
[2] = test system: HCT116 (colon) cancer cell line; test: MTT antiproliferative assay, HCT116; assay type: cell-based; details: Homo sapiens, HCT-116, 72 h, read-out: IC50 (μM) ± SE HCT116
[3] = target: VEGFR-2 (Homo sapiens, UniProt P35968); test: VEGFR-2; assay type: biochemical; details: for VEGFR-2 inhibitory potency relative to Sunitinib: ratio of IC50 values
Chain of VEGFR-2 (P35968 20-1356): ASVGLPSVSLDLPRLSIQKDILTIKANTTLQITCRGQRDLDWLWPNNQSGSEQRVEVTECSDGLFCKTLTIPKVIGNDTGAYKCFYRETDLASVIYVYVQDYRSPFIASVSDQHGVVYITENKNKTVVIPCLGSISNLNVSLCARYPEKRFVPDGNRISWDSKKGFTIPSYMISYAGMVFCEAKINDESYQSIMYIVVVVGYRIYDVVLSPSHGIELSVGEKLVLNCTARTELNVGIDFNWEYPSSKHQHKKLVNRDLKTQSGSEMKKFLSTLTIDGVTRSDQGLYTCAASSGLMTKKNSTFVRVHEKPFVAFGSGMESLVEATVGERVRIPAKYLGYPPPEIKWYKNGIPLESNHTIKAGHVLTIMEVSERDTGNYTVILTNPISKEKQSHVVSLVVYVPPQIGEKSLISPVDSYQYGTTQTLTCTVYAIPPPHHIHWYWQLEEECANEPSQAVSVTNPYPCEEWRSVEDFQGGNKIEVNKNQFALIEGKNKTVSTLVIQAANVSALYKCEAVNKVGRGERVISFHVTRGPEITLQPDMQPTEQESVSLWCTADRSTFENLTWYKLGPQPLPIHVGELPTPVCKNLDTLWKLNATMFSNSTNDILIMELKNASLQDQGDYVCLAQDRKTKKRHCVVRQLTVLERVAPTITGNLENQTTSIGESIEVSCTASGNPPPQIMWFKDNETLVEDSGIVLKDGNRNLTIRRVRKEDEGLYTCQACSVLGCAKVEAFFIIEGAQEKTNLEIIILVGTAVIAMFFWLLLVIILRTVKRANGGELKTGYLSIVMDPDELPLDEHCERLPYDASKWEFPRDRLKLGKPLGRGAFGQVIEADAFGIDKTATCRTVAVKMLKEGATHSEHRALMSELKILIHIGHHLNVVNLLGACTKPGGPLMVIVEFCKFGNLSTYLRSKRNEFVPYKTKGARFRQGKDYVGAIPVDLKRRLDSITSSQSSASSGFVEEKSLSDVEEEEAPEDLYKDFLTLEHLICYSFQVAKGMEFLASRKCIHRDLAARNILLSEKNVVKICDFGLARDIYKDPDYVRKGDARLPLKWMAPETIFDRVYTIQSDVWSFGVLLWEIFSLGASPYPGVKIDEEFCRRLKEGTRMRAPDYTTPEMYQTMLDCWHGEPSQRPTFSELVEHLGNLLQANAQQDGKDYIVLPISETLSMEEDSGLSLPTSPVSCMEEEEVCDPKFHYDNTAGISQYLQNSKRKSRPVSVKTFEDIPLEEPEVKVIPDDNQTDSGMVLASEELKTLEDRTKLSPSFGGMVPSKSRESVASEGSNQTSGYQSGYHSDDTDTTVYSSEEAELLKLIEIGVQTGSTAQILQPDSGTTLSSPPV

[4] = test system: chick embryo chorioallantoic membrane (CAM) blood vessels; test: CAM assay; assay type: in vivo, chicken; details: 20 μl of 660 μM, 3 days of treatment, n = 4, vehicle control 14.00 ± 3.00
[5] = target: c-kit (Homo sapiens, UniProt P10721); test: c-Kit ADP-Glo kinase assay; assay type: biochemical
Chain of c-kit (P10721 26-976): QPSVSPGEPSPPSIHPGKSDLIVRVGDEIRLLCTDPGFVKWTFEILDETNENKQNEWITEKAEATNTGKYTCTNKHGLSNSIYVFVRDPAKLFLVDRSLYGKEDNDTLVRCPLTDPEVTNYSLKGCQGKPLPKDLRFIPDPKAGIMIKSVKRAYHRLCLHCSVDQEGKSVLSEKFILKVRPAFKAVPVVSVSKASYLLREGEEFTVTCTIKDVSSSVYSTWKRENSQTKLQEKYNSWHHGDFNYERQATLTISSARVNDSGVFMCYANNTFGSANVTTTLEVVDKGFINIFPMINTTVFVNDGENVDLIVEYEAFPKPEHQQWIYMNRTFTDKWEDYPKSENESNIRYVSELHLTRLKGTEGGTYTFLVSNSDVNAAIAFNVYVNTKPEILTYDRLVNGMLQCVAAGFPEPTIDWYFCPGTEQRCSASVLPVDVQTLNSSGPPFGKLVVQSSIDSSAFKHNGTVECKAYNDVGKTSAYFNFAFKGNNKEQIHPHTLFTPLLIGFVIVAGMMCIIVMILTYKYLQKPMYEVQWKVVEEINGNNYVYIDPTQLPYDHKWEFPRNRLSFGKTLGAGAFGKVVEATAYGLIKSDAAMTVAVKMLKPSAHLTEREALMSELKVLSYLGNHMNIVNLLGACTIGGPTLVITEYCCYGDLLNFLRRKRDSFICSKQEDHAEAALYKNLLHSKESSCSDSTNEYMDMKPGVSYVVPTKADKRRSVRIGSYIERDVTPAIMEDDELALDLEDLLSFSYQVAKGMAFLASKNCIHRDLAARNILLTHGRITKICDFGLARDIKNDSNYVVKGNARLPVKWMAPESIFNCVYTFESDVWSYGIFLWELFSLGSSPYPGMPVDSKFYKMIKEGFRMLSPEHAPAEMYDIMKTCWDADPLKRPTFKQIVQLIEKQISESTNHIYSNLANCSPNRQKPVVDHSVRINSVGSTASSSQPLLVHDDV

[6] = test system: MCF7 cells; test: Cell cycle analysis by PI-flow cytometry; assay type: cell-based; details: MCF7, compound at its IC50; for DNA content (%) Pre-G1: control 1.49; for DNA content (%) G2/M: control 5.09; for DNA content (%) S: control 41.12; for DNA content (%) G0-G1: control 53.79
[7] = test system: MCF7 (breast) cancer cell line; test: MTT antiproliferative assay, MCF7; assay type: cell-based; details: for IC50: Homo sapiens, MCF7, 72 h, read-out: IC50 (μM) ± SE MCF7
[8] = test system: PaCa-2 (pancreatic) cancer cell line; test: MTT antiproliferative assay, PaCa-2; assay type: cell-based; details: for IC50: PaCa-2, 72 h, read-out: IC50 (μM) ± SE PaCa-2; for Potency against PaCa2 relative to Sunitinib: ratio of IC50 values
[9] = test system: MCF7 cells; test: Annexin V-FITC apoptosis/necrosis study; assay type: cell-based; details: MCF7, compound at its IC50; for Apoptosis (%) Late: control 0.13; for Apoptosis (%) Early: control 0.49; for Necrosis: control 0.87; for Apoptosis (%) Total: control 1.49

SMILES | SI (Selectivity index/therapeutical index) = CC50/IC50 [1] | IC50 [2] | IC50 [3] | Mean diameter of blood vessels (mm ± SD) [4] | IC50 [5] | DNA content (%) G2/M [6] | DNA content (%) S [6] | DNA content (%) G0-G1 [6] | IC50 [7] | IC50 [8] | Potency against PaCa2 relative to Sunitinib [8] | further results
CCN(CC)CCCC(C)Nc1ccnc2cc(Cl)ccc12 (stereo not drawn) [Chloroquine, reference compound] | 19.1 |  |  |  |  |  |  |  |  |  |  | 
CS(=O)(=O)Oc1ccc(C(=O)/C=C2/C(=O)Nc3ccccc32)cc1 [Compound 6a, (E)-4-[2-(2-Oxoindolin-3-ylidene)acetyl]phenyl methanesulfonate] | 362.5 | 16.4 ± 0.7 µM | 0.054 ± 0.0054 µM | 3.20 ± 1.00 mm | 0.12 ± 0.012 µM | 2.67% | 43.25% | 54.08% | 6.85 ± 0.37 µM | 8.3 ± 0.44 µM |  | DNA content (%) Pre-G1 [6]: 34.71%
CCS(=O)(=O)Oc1ccc(C(=O)/C=C2/C(=O)Nc3ccccc32)cc1 [Compound 6b, (E)-4-[2-(2-Oxoindolin-3-ylidene)acetyl]phenyl ethanesulfonate] | 23.8 | 12.8 ± 1.41 µM | 0.0989 ± 0.0099 µM | 5.10 ± 1.00 mm | 0.248 ± 0.0248 µM | 2.67% | 43.25% | 54.08% | 4.25 ± 0.23 µM | 5.6 ± 0.57 µM | three time folds | Apoptosis (%) Late [9]: 22.91%; Apoptosis (%) Early [9]: 2.51%; Necrosis [9]: 9.29%; Apoptosis (%) Total [9]: 34.71%; Cell cycle phase arrested [6]: arrests the cell cycle at G1/S phase; Decrease in cell population at G2/M relative to control [6]: 47.5%
CCS(=O)(=O)Oc1ccc(C(=O)/C=C2/C(=O)Nc3ccc(Cl)cc32)cc1 [Compound 6c, (E)-4-[2-(5-Chloro-2-oxoindolin-3-ylidene)acetyl]phenyl ethanesulfonate] | 26.4 | 5.33 ± 0.46 µM | 0.0369 ± 0.0037 µM | 5.1 mm and 5.13 ± 0.90 mm | 0.0723 ± 0.0072 µM |  |  |  | 4.28 ± 0.51 µM | 4.99 ± 0.29 µM | about 3.4 folds | VEGFR-2 inhibitory potency relative to Sunitinib [3]: 1.3 fold
CS(=O)(=O)N(c1ccc(C(=O)/C=C2/C(=O)Nc3ccccc32)cc1)S(C)(=O)=O [Compound 10a, (E)-N-(Methylsulfonyl)-N-{4-[2-(2-oxoindolin-3-ylidene)acetyl]phenyl}methanesulfonamide] | 7.4 | 21 ± 1.75 µM | 0.102 ± 0.0102 µM | 3.50 ± 0.50 mm | 0.103 ± 0.0103 µM | 4.11% | 54.18% | 41.71% | 6.07 ± 0.83 µM | 6.91 ± 0.89 µM |  | DNA content (%) Pre-G1 [6]: 28.25%
CCS(=O)(=O)N(c1ccc(C(=O)/C=C2/C(=O)Nc3ccccc32)cc1)S(=O)(=O)CC [Compound 10b, (E)-N-(Ethylsulfonyl)-N-{4-[2-(2-oxoindolin-3-ylidene)acetyl]phenyl}ethanesulfonamide] | 165.6 | 13.8 ± 1.06 µM | 0.0741 ± 0.0074 µM | 2.70 ± 0.40 mm | 0.185 ± 0.0185 µM |  | 54.18% |  | 4.15 ± 0.78 µM | 5.08 ± 0.57 µM | ~3.3 folds | Apoptosis (%) Late [9]: 17.15%; Apoptosis (%) Early [9]: 4.03%; Necrosis [9]: 7.07%; Apoptosis (%) Total [9]: 28.25%; Cell cycle phase arrested [6]: arrest the tested cell at S phase; Increment in S phase relative to control [6]: about 13%
CCS(=O)(=O)N(c1ccc(C(=O)/C=C2/C(=O)Nc3ccc(Cl)cc32)cc1)S(=O)(=O)CC [Compound 10c, (E)-N-{4-[2-(5-Chloro-2-oxoindolin-3-ylidene)acetyl]phenyl}-N-(ethylsulfonyl)ethanesulfonamide] | 75.5 | > 50 µM | 0.0534 ± 0.0053 µM | 5.0 mm and 5.00 ± 0.40 mm | 0.0817 ± 0.0082 µM |  |  |  | 4.43 ± 0.47 µM | 6.18 ± 0.32 µM |  | VEGFR-2 inhibitory potency relative to Sunitinib [3]: 0.89 fold; Potency against MCF7 relative to Sunitinib ([7]; ratio of IC50 values): 0.9 fold
NC(=O)c1nc(F)c[nH]c1=O [Favipiravir, reference compound] | 1.9 |  |  |  |  |  |  |  |  |  |  | 
CCN(CCO)CCCC(C)Nc1ccnc2cc(Cl)ccc12 (stereo not drawn) [Hydroxychloroquine, reference compound] | 12.2 |  |  |  |  |  |  |  |  |  |  | 
CCN(CC)CCNC(=O)c1c(C)[nH]c(/C=C2\C(=O)Nc3ccc(F)cc32)c1C [Sunitinib, reference compound] |  | 5.03 ± 0.3 µM |  | 5 mm and 5.0 mm and 5.00 ± 0.71 mm |  |  |  |  |  | 16.9 ± 0.95 µM |  | 
